The record followed here is BindingDB's records for doi:10.7270/Q2Z31X54 (Burnham Center For Chemical Genomics, 2011).

In one assay the target is T1, Endoribonuclease toxin MazF (Escherichia coli (strain K12), UniProt P0AE70).
T1 sequence (P0AE70 whole entry): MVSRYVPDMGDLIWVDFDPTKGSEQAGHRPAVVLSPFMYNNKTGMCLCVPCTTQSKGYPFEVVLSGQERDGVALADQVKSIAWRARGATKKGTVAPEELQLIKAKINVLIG
Briefly: activation of MazEF endoribonuclease cleavage – biochemical, fluorescence, single-stranded RNA substrate, uHTS hits, dose response (AID 588481).
Conditions: not given
With `CCOc1cccc(C2C(C(=O)c3ccc(C)o3)C(=O)C(=O)N2c2nccs2)c1` (stereo not given) [2-(3-ethoxyphenyl)-3-(5-methylfuran-2-yl)carbonyl-4-oxidanyl-1-(1,3-thiazol-2-yl)-2H-pyrrol-5-one], the 50% effective concentration (EC50) – broadly, the midpoint of the concentration-response curve – is 16.9 µM.

As for `O=C1N=c2ccc(Br)cc2=C1NNc1ccc(F)cc1` [SMR000564049], the EC50 was more than 99 µM.

`CSc1ccc(C2C(C(=O)c3ccco3)C(=O)C(=O)N2c2nnc(SC)s2)cc1` (stereo not given) [3-(furan-2-carbonyl)-4-hydroxy-2-(4-methylsulfanylphenyl)-1-(5-methylsulfanyl-1,3,4-thiadiazol-2-yl)-2H-pyrrol-5-one] had a 50% effective concentration (EC50) of more than 99 µM.

Compound `Cc1cccc(NNC2=c3cc(F)ccc3=NC2=O)c1` [MLS000673317] showed an EC50 of 38.7 µM.

In turn, `COc1ccc(N=CCC(=O)c2ccc(C)cc2)cc1OC` [SMR000269732] registered an EC50 of more than 99 µM.

In turn, `Cc1ccc(Cl)c2c1=NC(=O)C=2NNc1ccccc1` yielded a concentration giving a half-maximal response (EC50) of 19.1 µM.

The compound `Cc1ccc(NN=C2C(=O)N(CN3CCOCC3)c3ccccc32)cc1` [(3Z)-3-[(4-methylphenyl)hydrazinylidene]-1-(4-morpholinylmethyl)-2-indolone] came in with an EC50 of 39.4 µM.

Turning to `Cc1ccc2nc(N3C(=O)C(=O)C(C(=O)c4ccco4)C3c3cccs3)sc2c1` (stereo not given), the EC50 was more than 99 µM.

`CCN(CC)c1ccc(CN=Nc2ccc([N+](=O)[O-])cn2)cc1` [N-[[4-(diethylamino)phenyl]methylideneamino]-5-nitro-pyridin-2-amine] yielded an EC50 of more than 99 µM.

`O=C1Nc2ccc([N+](=O)[O-])cc2C1=NNc1ccc(F)cc1`: the EC50 was more than 99 µM.

Compound `CCOC(=O)c1c(NC=C2C(=O)NC(=O)NC2=O)sc2c1CCC2` [ethyl 2-{[(1E)-(2,4,6-trioxohexahydropyrimidin-5-yl)methylene]amino}-5,6-dihydro-4H-cyclopenta[b]thiophene-3-carboxylate] displayed an EC50 of more than 99 µM.

In turn, `CCC(N=Nc1cccc(C)c1)c1cnnc(SC)n1` (stereo not given) [MLS000705906] had an EC50 of more than 99 µM.

`CC1CC(=O)C2=C(C1)OC(=N)C(C#N)C2c1coc2ccccc2c1=O` (stereo not given) registered a concentration giving a half-maximal response (EC50) of more than 99 µM.

As for `COc1ccc(Nc2oc3cc(=O)ccc-3cc2C(=O)NCC2CCCO2)c(OC)c1` (stereo not given) [2-(2,4-dimethoxyanilino)-7-oxo-N-(2-oxolanylmethyl)-1-benzopyran-3-carboxamide], the EC50 was more than 99 µM.

On to `O=C1N=c2ccccc2=C1NNc1ccccc1F`, for which the EC50 is more than 99 µM.

In the case of `O=C1Nc2ccccc2C1=NNc1ccccc1` [3-(phenylhydrazo)-2-indolone], the EC50 is more than 99 µM.

In the case of `O=[N+]([O-])c1ccc(N=NCc2ccc3c(c2)OCO3)nc1` [N-(1,3-benzodioxol-5-ylmethylideneamino)-5-nitro-pyridin-2-amine], the response was half-maximal at 40.5 µM (EC50).

Regarding `O=C1NC(=O)N(C2CCCCC2)C(=O)C1=CCC=Nc1ccccc1` [(5Z)-5-[(E)-3-anilinoprop-2-enylidene]-1-cyclohexyl-1,3-diazinane-2,4,6-trione], the EC50 was more than 99 µM.

As to `Clc1cccc(C(Cc2nc3ccccc3[nH]2)N=Nc2ccccc2)c1` (stereo not given) [MLS000374846], the EC50 is more than 99 µM.

`CCCN1C(=O)C(=NNc2ccc3ccccc3n2)c2ccccc21` [(3Z)-1-propyl-3-(2-quinolinylhydrazinylidene)-2-indolone] returned a concentration for a half-maximal effect (EC50) of more than 99 µM.

Consider `C=CCOc1cccc(C2C(C(=O)c3ccc(C)o3)C(=O)C(=O)N2c2nccs2)c1` (stereo not given) [3-(5-methylfuran-2-yl)carbonyl-4-oxidanyl-2-(3-prop-2-enoxyphenyl)-1-(1,3-thiazol-2-yl)-2H-pyrrol-5-one], for which a half-maximal effect (EC50) was put at 11.4 µM.

As to `O=C1N=c2ccccc2=C1NNc1cccc(Cl)c1` [(3E)-1H-indole-2,3-dione 3-[(3-chlorophenyl)hydrazone]], the concentration giving a half-maximal response (EC50) is more than 99 µM.

Compound `COCc1n[nH]c2c1C(c1cc(OC)c(O)c(OC)c1)C(C#N)C(=N)O2` (stereo not given) [6-azanyl-4-(3,5-dimethoxy-4-oxidanyl-phenyl)-3-(methoxymethyl)-2,4-dihydropyrano[2,3-c]pyrazole-5-carbonitrile] displayed an EC50 of more than 99 µM.

For the compound `Cn1c(C(C#N)C(=O)COc2ccc3ccccc3c2)nc2ccccc21` (stereo not given) [(2E)-2-(3-methyl-1H-benzimidazol-2-ylidene)-4-(2-naphthalenyloxy)-3-oxobutanenitrile], the EC50 was more than 99 µM.

On to `Cc1oc(C)c2c(=O)ccc3c(c12)OC(=N)C(C#N)C3c1ccccc1` (stereo not given), for which the EC50 was more than 99 µM.

`Cc1nnc(N2C(=O)C(=O)C(C(=O)c3ccco3)C2c2ccc(C(C)(C)C)cc2)s1` (stereo not given) [2-(4-tert-butylphenyl)-3-(furan-2-carbonyl)-4-hydroxy-1-(5-methyl-1,3,4-thiadiazol-2-yl)-2H-pyrrol-5-one] showed an EC50 of more than 99 µM.

`CCCCN1C(=O)C(=NNc2ccccc2O)c2ccccc21` [(3Z)-1-butyl-3-[(2-hydroxyphenyl)hydrazinylidene]indol-2-one]: the EC50 worked out at 44.9 µM.

`Cc1[nH]c2ccccc2c1/C=C1\N=C(c2ccc(F)cc2)OC1=O` [2-(4-fluorophenyl)-4-[(2-methyl-1H-indol-3-yl)methylene]-1,3-oxazol-5(4H)-one] yielded an EC50 of more than 99 µM.

In turn, `O=c1cc2oc(O)c3cc(O)c(O)c(O)c3c-2oc1=O` [6,8,9,10-tetrahydroxypyran[3,2-c]isochromene-2,3-quinone] came in with an EC50 of 80.5 µM.

`CSc1nnc(N2C(=O)C(=O)C(C(=O)c3ccc(C)o3)C2c2ccc(C)cc2)s1` (stereo not given) [SMR000650392]: the EC50 is 9.87 µM.

`CCCCOc1cccc(C2C(C(=O)c3ccc(C)o3)C(=O)C(=O)N2c2nnc(C)s2)c1` (stereo not given) [2-(3-butoxyphenyl)-3-(5-methylfuran-2-yl)carbonyl-1-(5-methyl-1,3,4-thiadiazol-2-yl)-4-oxidanyl-2H-pyrrol-5-one] displayed an EC50 of more than 99 µM.

Compound `Cc1ccc(N/N=C2/C(=O)Nc3ccc(F)cc32)cc1` [5-fluoro-3-[2-(4-methylphenyl)hydrazono]indolin-2-one] came in with an EC50 of more than 99 µM.

Turning to `N=C(N)C1=CC(=O)/C(=C/C=c2ccc(=C(N)N)cc2)C=C1` [(4E)-4-[2-[4-[bis(azanyl)methylidene]cyclohexa-2,5-dien-1-ylidene]ethylidene]-3-oxidanylidene-cyclohexa-1,5-diene-1-carboximidamide;2-oxidanylethanesulfonic acid], a half-maximal response (EC50) required 4.77 µM.

`O=C(c1ccc2ccccc2n1)c1[nH][nH]c2c(O)n(-c3cccc(F)c3)c(=O)c1-2` [(3aS,6aS)-5-(3-fluorophenyl)-3-[oxo(2-quinolinyl)methyl]-3a,6a-dihydro-1H-pyrrolo[3,4-c]pyrazole-4,6-dione]: a half-maximal response (EC50) required 20.5 µM.

`COc1ccc(CN=Nc2ccc([N+](=O)[O-])cc2S(=O)(=O)N2CCN(C)CC2)cc1` [MLS000553953]: the EC50 is more than 99 µM.

With `Cc1ccc(C2=Nc3nnnn3C(c3ccc(N(C)C)cc3)C2)cc1` (stereo not given) [SMR000092467], the EC50 is more than 99 µM.

As to `CCN1C(=O)C(C=NN=Cc2ccccc2)c2ccc(C3=NNC(=O)CC3)cc21` (stereo not given) [benzaldehyde {[1-ethyl-2-oxo-6-(6-oxo-1,4,5,6-tetrahydro-3-pyridazinyl)-1,2-dihydro-3H-indol-3-ylidene]methyl}hydrazone], the EC50 is more than 99 µM.

`Cc1cc(O)n(-c2ccc(NCc3ccc(Cl)cc3)c([N+](=O)[O-])c2)c1O` [1-{4-[(4-chlorobenzyl)amino]-3-nitrophenyl}-3-methylpyrrolidine-2,5-dione] had an EC50 of 96.1 µM.

In the case of `O=C1C(=O)N(c2nccs2)C(c2ccccc2)C1C(=O)c1cc2ccccc2o1` (stereo not given) [3-(1-benzofuran-2-carbonyl)-4-hydroxy-2-phenyl-1-(1,3-thiazol-2-yl)-2H-pyrrol-5-one], the EC50 was more than 99 µM.

As for `C=c1[nH]n(-c2ccccc2)c(=O)c1=Cc1cc(C)n(C2CC2)c1C` [MLS001018445], the EC50 is more than 99 µM.

Compound `O=C1N=c2ccccc2=C1NNc1ccc(F)cc1` came in with an EC50 of more than 99 µM.

In the case of `COc1cccc(C2=Nc3nnnn3C(c3ccc(N(C)C)cc3)C2)c1` (stereo not given) [4-[5-(3-methoxyphenyl)-1,7-dihydro-[1,2,3,4]tetrazolo[1,5-a]pyrimidin-7-yl]-N,N-dimethyl-aniline], the EC50 was more than 99 µM.

With `Cc1[nH]c2ccccc2c1/C=C1\N=C(c2ccc(C(F)(F)F)cc2)OC1=O` [SMR000152363], the EC50 is more than 99 µM.

`O=c1[nH]c(N=NCc2ccc(F)cc2)nc2ccccc12` [MLS000700887] came in with an EC50 of 7.12 µM.

As for `O=C(c1ccc2ccccc2n1)c1[nH][nH]c2c(O)n(-c3cccc(C(F)(F)F)c3)c(=O)c1-2` [SMR000212847], the EC50 came out at 47.9 µM.

The compound `N#CC(C(=O)c1ccc([N+](=O)[O-])o1)c1nc2ccccc2[nH]1` (stereo not given) gave an EC50 of more than 99 µM.

Consider `COc1cc(C2c3c(-c4cccs4)n[nH]c3OC(=N)C2C#N)cc(OC)c1O` (stereo not given) [SMR000275523], for which the EC50 is more than 99 µM.

As for `CCSc1nnc(N2C(=O)C(=O)C(C(=O)c3ccco3)C2c2cccc(OC)c2)s1` (stereo not given) [MLS001140620], the concentration giving a half-maximal response (EC50) was more than 99 µM.

With `O=[N+]([O-])c1ccc(N=NCc2ccccc2)c(F)c1` [2-fluoranyl-4-nitro-N-[(phenylmethylidene)amino]aniline], the EC50 was more than 99 µM.

As for `N#Cc1ccc(-n2c(O)c3[nH][nH]c(C(=O)c4ccc5ccccc5n4)c-3c2=O)cc1` [4-[(3aS,6aS)-4,6-dioxo-3-[oxo(2-quinolinyl)methyl]-3a,6a-dihydro-1H-pyrrolo[3,4-c]pyrazol-5-yl]benzonitrile], a half-maximal effect (EC50) was put at 15.1 µM.

`COc1cc2c(cc1OC)C(CC(=O)c1ccc([N+](=O)[O-])c(C)c1)=NCC2` [(2Z)-2-(6,7-dimethoxy-3,4-dihydro-2H-isoquinolin-1-ylidene)-1-(3-methyl-4-nitrophenyl)ethanone] came in with an EC50 of more than 99 µM.

In the case of `CCOc1ccc(N=CCC(=O)c2ccc(OC)cc2)c([N+](=O)[O-])c1`, the EC50 is more than 99 µM.

As for `O=[N+]([O-])c1cc/c(=N\c2ccccc2O)c2no[nH]c1-2` [MLS001206694], the EC50 is more than 99 µM.

For `COc1ccc(C=C2CCCC(C(=O)C(F)(F)F)C2=O)cc1` (stereo not given) [SMR000142699], the EC50 is more than 99 µM.

The same assay, now with this note: inactive by the depositor's call.
`Cc1ccc(S(=O)(=O)N[N-][C+]2CCC(C(C)(C)C)CC2)cc1[N+](=O)[O-]` [SMR000241764]: the midpoint of the response, the EC50, lay at 52 µM.
